The values below come from PubChem BioAssay AID330 (DTP/NCI, 2004).

Values joined by “and” are separate entries in the source; they are usually repeats but may differ in a detail not shown here. Identical values can stand only once. Toxic doses and inconclusive results are not listed.

This assay deals with P388 leukemia ip, CD2F1 mice, survival T/C. The experiment in a line: NCI In Vivo Anticancer Drug Screen. Data for tumor model P388 Leukemia (intraperitoneal) in CD2F1 (CDF1) mice. The conditions noted are these: endpoint: median survival time, higher = longer survival. In short, it runs like this: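 Mice carrying the transplanted tumor received test compound or vehicle. Survival was recorded in each group, and the value is the treated-group measurement divided by that of the vehicle-treated control group.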

[1] abbreviates: dose: 25.0 mg/kg/injection, schedule: Q01DX009 (ip), vehicle: saline.
The mark [2] stands for this setting: dose: 50.0 mg/kg/injection, schedule: Q01DX009 (ip), vehicle: saline.
Setting [3] is: dose: 100.0 mg/kg/injection, schedule: Q01DX009 (ip), vehicle: saline.
Setting [4] is: dose: 200.0 mg/kg/injection, schedule: Q01DX009 (ip), vehicle: saline.
[5] abbreviates: dose: 12.5 mg/kg/injection, schedule: Q01DX009 (ip), vehicle: saline with Tween-80.
Setting [6] is: dose: 25.0 mg/kg/injection, schedule: Q01DX009 (ip), vehicle: saline with Tween-80.

Consider `[O-][n+]1c(-c2ccccc2)c(Cl)c(-c2ccccc2)n1O`, for which the T/C is, setting by setting: (dose: 1.5 mg/kg/injection, schedule: Q01DX005 (ip), vehicle: Klucel + Tween-80) 99 % of control; (dose: 3.0 mg/kg/injection, schedule: Q01DX005 (ip), vehicle: Klucel + Tween-80) 100 % of control; (dose: 6.0 mg/kg/injection, schedule: Q01DX005 (ip), vehicle: Klucel + Tween-80) 96 % of control; (dose: 60.0 mg/kg/injection, schedule: Q01DX005 (ip), vehicle: Klucel + Tween-80) 98 % of control.
As for `O=CCSC(=S)NNc1ccccc1`, the T/C runs as follows: under setting [1], 103 % of control; under setting [2], 90 % of control; under setting [3], 105 % of control; under setting [4], 96 % of control.
Turning to `C=C1C(=O)OC2C1C(OC(=O)C(C)CC)CC1(O)COC3(O)C1C2C1(C)OC13` (centres undefined), the T/C is 106 % of control (dose: 6.25 mg/kg/injection, schedule: Q01DX001 (ip), vehicle: Klucel (hydroxypropylcellulose) (HPC)); 108 % of control (dose: 12.5 mg/kg/injection, schedule: Q01DX001 (ip), vehicle: Klucel (hydroxypropylcellulose) (HPC)); 117 % of control and 90 % of control (dose: 25.0 mg/kg/injection, schedule: Q01DX001 (ip), vehicle: Klucel (hydroxypropylcellulose) (HPC)).
For the molecule `Nc1cccc(=O)[nH]1`, the T/C is 95 % of control under setting [3]; 109 % of control under setting [4]; 113 % of control and 123 % of control (dose: 400.0 mg/kg/injection, schedule: Q01DX009 (ip), vehicle: saline).
As to `O=C(OCC12OC1C(=O)C1OC1C2O)c1ccccc1` (centres undefined), the T/C was 104 % of control (dose: 1.88 mg/kg/injection, schedule: Q04DX002 (ip), vehicle: saline with Tween-80); 105 % of control (dose: 3.75 mg/kg/injection, schedule: Q04DX002 (ip), vehicle: saline with Tween-80); 101 % of control (dose: 7.5 mg/kg/injection, schedule: Q04DX002 (ip), vehicle: saline with Tween-80).
Regarding `CO[C@@H]1[C@H](O)CC[C@]2(CO2)[C@H]1[C@@]1(C)O[C@@H]1CC=C(C)C`, the T/C by setting is: (dose: 3.13 mg/kg/injection, schedule: Q01DX009 (ip), vehicle: saline with Tween-80) 99 % of control and 120 % of control; (dose: 6.25 mg/kg/injection, schedule: Q01DX009 (ip), vehicle: saline with Tween-80) 99 % of control and 116 % of control; under setting [5], 99 % of control and 106 % of control; under setting [6], 108 % of control and 120 % of control; (dose: 33.3 mg/kg/injection, schedule: Q01DX009 (ip), vehicle: saline with Tween-80) 99 % of control.
Consider `CN1CCN(C)C1=Nc1ccccc1/C=C/C=C1C(=O)N(C)C(=O)N(C)C1=O`, for which the T/C (dose: 25.0 mg/kg/injection, schedule: Q04DX002 (ip), vehicle: saline with Tween-80) was 114 % of control; the T/C (dose: 50.0 mg/kg/injection, schedule: Q04DX002 (ip), vehicle: saline with Tween-80) was 106 % of control; the T/C (dose: 100.0 mg/kg/injection, schedule: Q04DX002 (ip), vehicle: saline with Tween-80) is 123 % of control.
For `CCc1c2cc(OC)c(OC)cc2cc2c3cc(OC)c(OC)cc3cc[n+]12` (tested in a mixture with another compound), the T/C reads like this: (dose: 8.8 mg/kg/injection, schedule: Q04DX003 (ip), vehicle: saline) 108 % of control; (dose: 20.0 mg/kg/injection, schedule: Q04DX003 (ip), vehicle: saline) 122 % of control; under setting [1], 151 % of control; (dose: 29.3 mg/kg/injection, schedule: Q01DX009 (ip), vehicle: saline with Tween-80) 153 % of control; (dose: 37.5 mg/kg/injection, schedule: Q01DX009 (ip), vehicle: saline with Tween-80) 167 % of control; (dose: 44.0 mg/kg/injection, schedule: Q01DX009 (ip), vehicle: saline with Tween-80) 170 % of control. Also, the T/C is, setting by setting: under setting [2], 178 % of control; (dose: 66.0 mg/kg/injection, schedule: Q01DX009 (ip), vehicle: saline with Tween-80) 201 % of control; (dose: 75.0 mg/kg/injection, schedule: Q01DX009 (ip), vehicle: saline with Tween-80) 208 % of control; (dose: 88.0 mg/kg/injection, schedule: Q04DX003 (ip), vehicle: saline) 150 % of control; (dose: 100.0 mg/kg/injection, schedule: Q04DX003 (ip), vehicle: saline with Tween-80) 154 % of control; (dose: 150.0 mg/kg/injection, schedule: Q01DX009 (ip), vehicle: saline with Tween-80) 234 % of control. Besides, the T/C (dose: 150.0 mg/kg/injection, schedule: Q01DX009 (ip), vehicle: saline) is 244 % of control and 92 % of control; the T/C under setting [4] is 171 % of control; the T/C (dose: 200.0 mg/kg/injection, schedule: Q04DX003 (ip), vehicle: saline with Tween-80) was 181 % of control; the T/C (dose: 200.0 mg/kg/injection, schedule: Q04DX003 (ip), vehicle: saline) is 150 % of control and 191 % of control; the T/C (dose: 225.0 mg/kg/injection, schedule: Q01DX009 (ip), vehicle: saline) is 218 % of control; the T/C (dose: 300.0 mg/kg/injection, schedule: Q04DX003 (ip), vehicle: saline) was 195 % of control. For the same molecule, the T/C is, setting by setting: (dose: 400.0 mg/kg/injection, schedule: Q04DX003 (ip), vehicle: saline with Tween-80) 90 % of control; (dose: 400.0 mg/kg/injection, schedule: Q04DX003 (ip), vehicle: saline) 104 % of control.
As for `O=C1OCC/C1=C\c1ccco1`, the T/C reads like this: (dose: 50.0 mg/kg/injection, schedule: Q01DX005 (ip), vehicle: acetone) 119 % of control; (dose: 100.0 mg/kg/injection, schedule: Q01DX005 (ip), vehicle: acetone) 103 % of control.
As for `CC1=Nc2cc3ccccc3cc2N(C)/C1=C/C1=C(Cl)C(=O)c2ccccc2C1=O`, the T/C was 96 % of control under setting [5]; 100 % of control under setting [6]; 92 % of control and 97 % of control (dose: 50.0 mg/kg/injection, schedule: Q01DX009 (ip), vehicle: saline with Tween-80); 106 % of control (dose: 100.0 mg/kg/injection, schedule: Q01DX009 (ip), vehicle: saline with Tween-80); 89 % of control (dose: 200.0 mg/kg/injection, schedule: Q01DX009 (ip), vehicle: saline with Tween-80).
As to `O=C1OC(c2ccccc2)N(c2ccccc2)C(=O)C1Cc1ccccc1` (centres undefined), the T/C (dose: 60.0 mg/kg/injection, schedule: Q01DX005 (ip), vehicle: Klucel (hydroxypropylcellulose) (HPC)) is 103 % of control; the T/C (dose: 120.0 mg/kg/injection, schedule: Q01DX005 (ip), vehicle: Klucel (hydroxypropylcellulose) (HPC)) is 98 % of control; the T/C (dose: 240.0 mg/kg/injection, schedule: Q01DX005 (ip), vehicle: Klucel (hydroxypropylcellulose) (HPC)) is 110 % of control.
On to `FC(F)(F)c1ccc2c3c(c4c(c2n1)OCN(Cc1ccc(Cl)cc1Cl)C4)CN(Cc1ccc(Cl)cc1Cl)CO3`, for which the T/C (dose: 100.0 mg/kg/injection, schedule: Q01DX001 (ip), vehicle: other) is 93 % of control; the T/C (dose: 200.0 mg/kg/injection, schedule: Q01DX001 (ip), vehicle: other) is 93 % of control; the T/C (dose: 400.0 mg/kg/injection, schedule: Q01DX001 (ip), vehicle: other) is 100 % of control.
As to `Oc1ccccc1C1NCCc2[nH]cnc21` (centres undefined), the T/C is, setting by setting: (dose: 50.0 mg/kg/injection, schedule: Q01DX005 (ip), vehicle: Klucel (hydroxypropylcellulose) (HPC)) 104 % of control; (dose: 100.0 mg/kg/injection, schedule: Q01DX005 (ip), vehicle: Klucel (hydroxypropylcellulose) (HPC)) 102 % of control; (dose: 200.0 mg/kg/injection, schedule: Q01DX005 (ip), vehicle: Klucel (hydroxypropylcellulose) (HPC)) 104 % of control.
For the molecule `CN=C(NC)c1ccc(NC(=O)c2cc(Cl)cc(C(=O)Nc3ccc(C(=NC)NC)cc3)c2)cc1`, the T/C (dose: 6.25 mg/kg/injection, schedule: Q01DX005 (ip), vehicle: saline) is 98 % of control; the T/C (dose: 12.5 mg/kg/injection, schedule: Q01DX005 (ip), vehicle: saline) was 113 % of control; the T/C (dose: 25.0 mg/kg/injection, schedule: Q01DX005 (ip), vehicle: saline) is 118 % of control.
For `CC1Nc2ccccc2NC1C` (centres undefined), the T/C (dose: 6.25 mg/kg/injection, schedule: Q01DX009 (ip), vehicle: saline + Tween-80 + alcohol) is 98 % of control; the T/C (dose: 12.5 mg/kg/injection, schedule: Q01DX009 (ip), vehicle: saline + Tween-80 + alcohol) was 96 % of control; the T/C (dose: 25.0 mg/kg/injection, schedule: Q01DX009 (ip), vehicle: saline + Tween-80 + alcohol) was 99 % of control and 95 % of control; the T/C (dose: 50.0 mg/kg/injection, schedule: Q01DX009 (ip), vehicle: saline + Tween-80 + alcohol) is 91 % of control; the T/C (dose: 100.0 mg/kg/injection, schedule: Q01DX009 (ip), vehicle: saline + Tween-80 + alcohol) is 100 % of control.
